Results published in PubChem BioAssay (NCI).
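Cultured in 96-well plates, cells were exposed to test compound for 48 hours across five concentrations. Here, GI50 denotes the concentration required for 50% inhibition of growth. At the TGI there is no net growth.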

How the values were obtained:
Test in all cases: NCI tumour cell line growth inhibition, 48 h
[1] = tested on: SK-OV-3 ovarian
[2] = tested on: ACHN renal
[3] = tested on: CAKI-1 renal
[4] = tested on: SK-MEL-5 melanoma
[5] = tested on: CCRF-CEM leukemia
[6] = tested on: HCT-15 colon
[7] = tested on: NCI/ADR-RES ovarian
[8] = tested on: UACC-62 melanoma
[9] = tested on: RPMI-8226 leukemia
[10] = tested on: SK-MEL-28 melanoma
[11] = tested on: UACC-257 melanoma
[12] = tested on: DU-145 prostate
[13] = tested on: OVCAR-5 ovarian
[14] = tested on: HL-60(TB) leukemia

Cc1c2c(cc[n+]1Cc1ccccc1)c1ccc(OCc3ccccc3)cc1n2Cc1ccccc1
GI50 [1]: 1110 nM | TGI [1]: 2360 nM | GI50 [2]: 1510 nM | TGI [2]: 2840 nM | GI50 [3]: 1670 nM | TGI [3]: 3670 nM | GI50 [4]: 182 nM | TGI [4]: 366 nM | GI50 [5]: 336 nM | TGI [5]: 2090 nM | GI50 [6]: 2010 nM | TGI [6]: 4640 nM | GI50 [7]: 5780 nM | TGI [7]: > 69300 nM | GI50 [8]: 286 nM | TGI [8]: 1210 nM | GI50 [9]: 231 nM | TGI [9]: 1950 nM | GI50 [10]: 515 nM | TGI [10]: 1860 nM | GI50 [11]: 245 nM | TGI [11]: 789 nM | GI50 [12]: 499 nM | TGI [12]: 1740 nM | GI50 [13]: 984 nM | TGI [13]: 2210 nM | GI50 [14]: 202 nM | TGI [14]: 470 nM
